# Laboratory results taken from US5730968A, “Segmented chelating polymers as imaging and therapeutic agents” (Sterling Winthrop Inc., priority 1994, dated 1998).
# Assay: blood pool retention time in rodents, against […]
# Assay type: in vivo
# Description: Retention time in the chart below is reported as the blood pool half life, T 1/2 (minutes) for half of the composition to be depleted from the blood pool.
smiles,measurement,value
CNC[C@H](O)[C@@H](O)[C@H](O)[C@H](O)CO.CNC[C@H](O)[C@@H](O)[C@H](O)[C@H](O)CO.O=C([O-])CN(CCN(CC(=O)[O-])CC(=O)O)CCN(CC(=O)[O-])CC(=O)O.[Gd+3] [Magnevist],"Blood Pool T1/2 (blood pool half life, for half of the composition to be depleted from the blood pool)",12 min
